Source: patent US20230265151A1, “GIP/GLP1 CO-AGONIST COMPOUNDS” (priority 2020, published 2023)
Like-named read-outs stand apart in the source and are kept apart here. *1 amine or outer side, *2 acyl side, *3 side chain or, on linkers, in order; H or OH if unused. Where a SMILES comes first, the peptide text is derived from it. Side-chain parts run from the residue outwards. [ ]: non-standard residue; d: D form. The star is where a group is joined. αMePhe(2-F) = C[C@](N)(Cc1ccccc1F)C(=O)O; γGlu = O=C(O)[C@H](CCC(=O)[*:2])N[*:1]; αMeY = C[C@](N)(Cc1ccc(O)cc1)C(=O)O; αMeL = CC(C)C[C@](C)(N)C(=O)O; Lauroyl = CCCCCCCCCCCC(=O)*; AEEA = NCCOCCOCC(=O)O; Aib = CC(C)(N)C(=O)O

Tests used:
Assay type in all cases: cell-based
[1] = biological target: hGLP-1R (Homo sapiens, UniProt P43220); test: Functional cAMP formation (HTRF) in HEK-293 clonal cells expressing hGLP-1R, 0.1% bovine casein, without or with 1.0% human serum albumin; design: expressed in transfected cells; settings: for Emax: HEK293, cAMP, percent of maximal response to GLP-1(7-36)NH2, read-out: hGLP-1R Emax, % ± SEM; for EC50: cAMP
hGLP-1R, sequence (P43220 24-463): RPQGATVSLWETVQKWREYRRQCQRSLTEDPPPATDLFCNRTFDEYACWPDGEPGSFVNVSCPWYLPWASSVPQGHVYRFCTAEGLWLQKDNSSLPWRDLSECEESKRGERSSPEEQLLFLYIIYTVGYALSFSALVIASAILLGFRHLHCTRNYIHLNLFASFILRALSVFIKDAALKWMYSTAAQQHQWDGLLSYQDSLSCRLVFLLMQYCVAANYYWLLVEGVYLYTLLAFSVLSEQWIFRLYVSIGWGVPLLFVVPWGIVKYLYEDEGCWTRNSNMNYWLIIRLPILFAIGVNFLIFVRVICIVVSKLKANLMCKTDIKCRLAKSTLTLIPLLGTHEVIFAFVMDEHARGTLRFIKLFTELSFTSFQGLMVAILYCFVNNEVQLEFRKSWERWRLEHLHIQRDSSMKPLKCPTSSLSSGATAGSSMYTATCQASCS
Method in brief: (§1)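 Cells were stimulated with peptide for 30 min at 37° C, then intracellular cAMP was measured by competitive HTRF (665/620 nm ratio) and converted to nM using a cAMP standard curve. Relative EC50 and Emax came from four-parameter logistic fits of percent maximal response against peptide concentration.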

[2] = biological target: T1, hGCGR (Homo sapiens, UniProt P47871); test: Functional cAMP formation (HTRF) in HEK-293 clonal cells expressing hGCGR, 0.1% bovine casein, without or with 1.0% human serum albumin; settings: cAMP
T1 construct: expressed in transfected cells
T1 sequence (P47871 26-477): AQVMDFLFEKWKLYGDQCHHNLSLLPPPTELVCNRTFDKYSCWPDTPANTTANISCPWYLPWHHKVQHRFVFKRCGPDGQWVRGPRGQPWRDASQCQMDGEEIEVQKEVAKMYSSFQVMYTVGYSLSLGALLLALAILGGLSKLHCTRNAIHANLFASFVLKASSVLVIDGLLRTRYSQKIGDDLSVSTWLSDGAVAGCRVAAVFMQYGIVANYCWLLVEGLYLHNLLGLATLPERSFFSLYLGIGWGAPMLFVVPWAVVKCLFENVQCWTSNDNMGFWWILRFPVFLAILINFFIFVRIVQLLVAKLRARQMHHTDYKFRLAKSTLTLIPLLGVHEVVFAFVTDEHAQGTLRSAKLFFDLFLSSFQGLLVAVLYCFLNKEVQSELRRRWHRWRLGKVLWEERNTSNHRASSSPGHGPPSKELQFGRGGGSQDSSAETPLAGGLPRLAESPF
Method in brief: as §1

[3] = biological target: T2, hGIPR (Homo sapiens, UniProt P48546); test: Functional cAMP formation (HTRF) in HEK-293 clonal cells expressing hGIPR, 0.1% bovine casein, without or with 1.0% human serum albumin; settings: for EC50: cAMP
T2 construct: expressed in transfected cells
T2 sequence (P48546 22-466): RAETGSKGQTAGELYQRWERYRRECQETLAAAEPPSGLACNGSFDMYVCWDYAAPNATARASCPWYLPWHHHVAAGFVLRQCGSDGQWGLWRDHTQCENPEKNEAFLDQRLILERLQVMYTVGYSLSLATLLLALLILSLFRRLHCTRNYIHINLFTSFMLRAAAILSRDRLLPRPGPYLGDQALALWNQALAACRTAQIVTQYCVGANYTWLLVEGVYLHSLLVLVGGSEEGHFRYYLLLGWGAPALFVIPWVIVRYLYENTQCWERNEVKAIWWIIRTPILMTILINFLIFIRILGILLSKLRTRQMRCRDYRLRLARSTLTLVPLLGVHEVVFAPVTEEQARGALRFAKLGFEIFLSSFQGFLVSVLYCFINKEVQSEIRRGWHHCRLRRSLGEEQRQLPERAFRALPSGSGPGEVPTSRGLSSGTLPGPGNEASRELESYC
Method in brief: as §1

[4] = 37° C., 0.1% bovine casein and 1.0% human serum albumin
[5] = 37° C., 0.1% bovine casein, arithmetic mean
[6] = 37° C., 0.1% bovine casein (no human serum albumin), geometric mean, read-out: hGLP-1R EC50, nM (SEM, n)
[7] = 37° C., 0.1% bovine casein (no human serum albumin), geometric mean, read-out: hGCGR EC50, nM (SEM, n)
[8] = 37° C., 0.1% bovine casein and 1.0% human serum albumin, geometric mean (SEM, n), read-out: hGCGR EC50, nM (SEM, n)
[9] = HEK293, cAMP, 37° C., 0.1% bovine casein and 1.0% human serum albumin, percent of maximal response to GIP(1-42)NH2, read-out: hGIPR Emax, % ± SEM
[10] = HEK293, cAMP, 37° C., 0.1% bovine casein, percent of maximal response to GIP(1-42)NH2, arithmetic mean, read-out: hGIPR Emax, % ± SEM
[11] = 37° C., 0.1% bovine casein (no human serum albumin), geometric mean, read-out: hGIPR EC50, nM (SEM, n)

For `CC[C@H](C)[C@H](NC(=O)[C@H](CCCN)NC(=O)[C@H](CC(=O)O)NC(=O)[C@H](CC(C)C)NC(=O)[C@](C)(CC(C)C)NC(=O)[C@@H](NC(=O)C(C)(C)NC(=O)[C@@H](NC(=O)[C@H](CC(=O)O)NC(=O)[C@H](CO)NC(=O)[C@@H](NC(=O)[C@](C)(Cc1ccccc1F)NC(=O)[C@@H](NC(=O)CNC(=O)[C@H](CCC(=O)O)NC(=O)C(C)(C)NC(=O)[C@@H](N)Cc1ccc(O)cc1)[C@@H](C)O)[C@@H](C)O)C(C)C)[C@@H](C)CC)C(=O)N[C@@H](C)C(=O)N[C@@H](CCC(N)=O)C(=O)NC(C)(C)C(=O)N[C@@H](CCC(=O)O)C(=O)N[C@@H](Cc1ccccc1)C(=O)N[C@H](C(=O)N[C@@H](CCCCNC(=O)COCCOCCNC(=O)COCCOCCNC(=O)COCCOCCNC(=O)CC[C@H](NC(=O)CCCCCCCCCCCCC(=O)O)C(=O)O)C(=O)N[C@@](C)(Cc1ccc(O)cc1)C(=O)N[C@@H](CC(C)C)C(=O)N[C@H](C(=O)N[C@@H](CCCCNC(=O)COCCOCCNC(=O)COCCOCCNC(=O)COCCOCCNC(=O)CC[C@H](NC(=O)CCCCCCCCCCCCC(=O)O)C(=O)O)C(=O)NCC(=O)NCC(=O)N1CCC[C@H]1C(=O)N[C@@H](CO)C(=O)N[C@@H](CO)C(=O)NCC(=O)N[C@@H](C)C(=O)N1CCC[C@H]1C(=O)N1CCC[C@H]1C(=O)N1CCC[C@H]1C(=O)N[C@@H](CO)C(N)=O)[C@@H](C)CC)[C@@H](C)CC` [Example 344], the Emax [1, 4] was 96.5%, the Emax [1, 5] was 100% and the EC50 [1, 6] was 0.336 nM. For the same compound, the EC50 [2, 7] was greater than 9950 nM, the EC50 [2, 8] was greater than 9950 nM and the Emax [3, 9] was 87.3%. The Emax [3, 10] was 97.9%, the EC50 [3, 11] was 0.0174 nM and the EC50 ([3]; 37° C., 0.1% bovine casein and 1.0% human serum albumin, geometric mean (SEM, n), read-out: hGIPR EC50, nM (SEM, n)) was 6.78 nM.

Work on `CCCCCCCCCCCC(=O)N[C@@H](CCC(=O)NCCOCCOCC(=O)NCCOCCOCC(=O)NCCCC[C@H](NC(=O)CNC(=O)[C@H](CC(=O)O)NC(=O)[C@H](CC(C)C)NC(=O)[C@](C)(CC(C)C)NC(=O)[C@@H](NC(=O)C(C)(C)NC(=O)[C@H](CCCCNC(=O)COCCOCCNC(=O)COCCOCCNC(=O)CC[C@H](NC(=O)CCCCCCCCCCC)C(=O)O)NC(=O)[C@H](CC(=O)O)NC(=O)[C@H](CO)NC(=O)[C@@H](NC(=O)[C@](C)(Cc1ccccc1F)NC(=O)[C@@H](NC(=O)CNC(=O)[C@H](CCC(=O)O)NC(=O)C(C)(C)NC(=O)[C@@H](N)Cc1ccc(O)cc1)[C@@H](C)O)[C@@H](C)O)[C@@H](C)CC)C(=O)N[C@@H](C)C(=O)N[C@@H](CCC(N)=O)C(=O)NC(C)(C)C(=O)N[C@@H](CCC(=O)O)C(=O)N[C@@H](Cc1ccccc1)C(=O)N[C@H](C(=O)N[C@H](CCC(=O)O)C(=O)N[C@@](C)(Cc1ccc(O)cc1)C(=O)N[C@@H](CC(C)C)C(=O)N[C@H](C(=O)N[C@@H](CCC(=O)O)C(=O)NCC(=O)NCC(=O)N1CCC[C@H]1C(=O)N[C@@H](CO)C(=O)N[C@@H](CO)C(=O)NCC(=O)N[C@@H](C)C(=O)N1CCC[C@H]1C(=O)N1CCC[C@H]1C(=O)N1CCC[C@H]1C(=O)N[C@@H](CO)C(N)=O)[C@@H](C)CC)[C@@H](C)CC)C(=O)O` [Example 445] (H-Y[Aib]EGT[αMePhe(2-F)]TSDK([AEEA-AEEA-γGlu-Lauroyl])[Aib]I[αMeL]LDGK([AEEA-AEEA-γGlu-Lauroyl])AQ[Aib]EFI[dE][αMeY]LIEGGPSSGAPPPS-NH2; N-terminus assumed) yielded an Emax [1, 4] of 100%, an EC50 [1, 6] of 0.0781 nM and an EC50 ([1]; 37° C., 0.1% bovine casein and 1.0% human serum albumin, geometric mean (SEM, n), read-out: hGLP-1R EC50, nM (SEM, n)) of 13.1 nM. The EC50 [2, 7] was greater than 9950 nM, the EC50 [2, 8] was greater than 9950 nM and the Emax [3, 9] was 91.4%. It also gave an EC50 [3, 11] of 0.00728 nM.

`CC[C@H](C)[C@H](NC(=O)[C@H](CC(C)C)NC(=O)[C@](C)(Cc1ccc(O)cc1)NC(=O)[C@@H](CCC(=O)O)NC(=O)[C@@H](NC(=O)[C@H](Cc1ccccc1)NC(=O)[C@H](CCCCNC(=O)COCCOCCNC(=O)COCCOCCNC(=O)CCCCCCCCCCCCC(=O)O)NC(=O)C(C)(C)NC(=O)[C@H](CCC(N)=O)NC(=O)[C@H](C)NC(=O)[C@H](CCCCNC(=O)COCCOCCNC(=O)COCCOCCNC(=O)CCCCCCCCCCCCC(=O)O)NC(=O)[C@H](CCCN)NC(=O)[C@H](CC(=O)O)NC(=O)[C@H](CC(C)C)NC(=O)[C@](C)(CC(C)C)NC(=O)[C@@H](NC(=O)C(C)(C)NC(=O)[C@H](Cc1ccc(O)cc1)NC(=O)[C@H](CC(=O)O)NC(=O)[C@H](CO)NC(=O)[C@@H](NC(=O)[C@](C)(Cc1ccccc1F)NC(=O)[C@@H](NC(=O)CNC(=O)[C@H](CCC(=O)O)NC(=O)C(C)(C)NC(=O)[C@@H](N)Cc1ccc(O)cc1)[C@@H](C)O)[C@@H](C)O)[C@@H](C)CC)[C@@H](C)CC)C(=O)N[C@@H](CCC(=O)O)C(=O)NCC(=O)NCC(=O)N1CCC[C@H]1C(=O)N[C@@H](CO)C(=O)N[C@@H](CO)C(=O)NCC(=O)N[C@@H](C)C(=O)N1CCC[C@H]1C(=O)N1CCC[C@H]1C(=O)N1CCC[C@H]1C(=O)N[C@@H](CO)C(N)=O` [Example 385] gave an Emax [1, 4] of 112%, an Emax [1, 5] of 100% and an EC50 [1, 6] of 0.189 nM. The EC50 [2, 7] was greater than 9950 nM, the EC50 [2, 8] was greater than 9950 nM and the Emax [3, 9] was 83.5%. The Emax [3, 10] was 95.2% and the EC50 [3, 11] was 0.0154 nM.

`CC[C@H](C)[C@H](NC(=O)[C@H](CC(C)C)NC(=O)[C@](C)(Cc1ccc(O)cc1)NC(=O)[C@H](CCCCNC(=O)COCCOCCNC(=O)COCCOCCNC(=O)CC[C@H](NC(=O)CCCCCCCCCCCCC(=O)O)C(=O)O)NC(=O)[C@@H](NC(=O)[C@](C)(Cc1ccccc1)NC(=O)[C@H](CCC(=O)O)NC(=O)C(C)(C)NC(=O)[C@H](CCC(N)=O)NC(=O)[C@H](C)NC(=O)[C@H](CCCCNC(=O)COCCOCCNC(=O)COCCOCCNC(=O)CC[C@H](NC(=O)CCCCCCCCCCCCC(=O)O)C(=O)O)NC(=O)[C@H](CCCN)NC(=O)[C@H](CC(=O)O)NC(=O)[C@H](CC(C)C)NC(=O)[C@](C)(CC(C)C)NC(=O)[C@@H](NC(=O)[C@H](CO)NC(=O)[C@H](Cc1ccncc1)NC(=O)[C@H](CC(=O)O)NC(=O)[C@H](CO)NC(=O)[C@@H](NC(=O)[C@](C)(Cc1ccccc1F)NC(=O)[C@@H](NC(=O)CNC(=O)[C@H](CCC(=O)O)NC(=O)C(C)(C)NC(=O)[C@@H](N)Cc1ccc(O)cc1)[C@@H](C)O)[C@@H](C)O)[C@@H](C)CC)[C@@H](C)CC)C(=O)N[C@@H](CCC(=O)O)C(=O)NCC(=O)NCC(=O)N1CCC[C@H]1C(=O)N[C@@H](CO)C(=O)N[C@@H](CO)C(=O)NCC(=O)N[C@@H](C)C(=O)N1CCC[C@H]1C(=O)N1CCC[C@H]1C(=O)N1CCC[C@H]1C(=O)N[C@@H](CO)C(N)=O` [Example 82] was tested, and the EC50 ([1]; hGLP-1R EC50, nM (SEM, n), incubated at 37° C., 0.1% bovine casein (no human serum albumin), geometric mean) was 4.78 nM, the EC50 ([2]; hGCGR EC50, nM (SEM, n), incubated at 37° C., 0.1% bovine casein (no human serum albumin), geometric mean) was greater than 9950 nM and the Emax ([3]; HEK293, read-out: hGIPR Emax, % ± SEM, percent of maximal response to GIP(1-42)NH2, 37° C., 0.1% bovine casein, arithmetic mean) was 81.4 ± 6.09%. It also gave an EC50 ([3]; hGIPR EC50, nM (SEM, n), incubated at 37° C., 0.1% bovine casein (no human serum albumin), geometric mean) of 0.0206 nM.
